In patent US20080253996A1, “Use of Sdf-1 for the Treatment and/or Prevention of Neurological Diseases” (LABORATORIES SERONO SA, priority 2005, published 2008):

What was measured:
sciatic nerve crush mice = experiment: Neuropathy induced by sciatic nerve crush, electrophysiological recording (CMAP); format: in vivo, mouse; conditions: for increase in the CMAP amplitude as compared to untreated mice: SDF-1α 30 μg/kg or μ/kg, IL-6 30 μ/kg s.c., significant at 15 dpl and 22dpl
Experimental: […] 8 week-old females C57bl/6 RJ mice (Elevage Janvier, Le Genest-St-Isle, France) were used. They were divided into 6 groups (n=6): • (a) nerve crush/Vehicle (Saline/0.02% BSA); • (b) nerve crush/SDF-1α (3 μg/kg); • (c) nerve crush/SDF-1α (10 μg/kg); • (d) nerve crush/SDF-1α (30 μg/kg); • (e) nerve crush/SDF-1α (100 μg/kg); • (f) nerve crush/IL-6 (30 μg/kg).
The animals were anaesthetized by inhalation of 3% Isoflurane (Baxter). The right sciatic nerve was surgically exposed at mid thigh level and crushed at 5 mm proximal to the trifurcation of the sciatic nerve. The nerve was crushed twice for 30s with a haemostatic forceps (width 1.5 mm; Koenig; Strasbourg; France) with a 90-degree rotation between each crush.
Electromyographical (EMG) testing was performed once before the surgery day and each week during 3 weeks following the operation.
The day of nerve crush surgery was considered as dpl 0 (dpl=day post lesion). No test was performed during the 4 days following the crush.
From the day of nerve injury to the end of the study, SDF-1α, IL-6 or Vehicle were administered daily by subcutaneous injections (s.c.) route, 5 days per week.
Electrophysiological recordings were performed using a Neuromatic 2000M electromyograph (EMG) (Dantec, Les Ulis, France). Mice were anaesthetized by inhalation of 3% Isofluran® (Baxter). The normal body temperature was maintained using a heated operating table (Minerve, Esternay, France).
Compound muscle action potential (CMAP) was measured in the gastrocnemius muscle after a single 0.2 ms stimulation of the sciatic nerve at a supramaximal intensity (12.8 mA). The amplitude (mV) and the latency (ms) of the action potential were measured on the operated leg. The measures was also registered on the contralateral (uncrushed) leg of Vehicle treated animals (Baseline). The amplitude is indicative of the number of active motor units, while the distal latency indirectly reflects motor nerve conduction and neuromuscular transmission velocities, which depends in part on the degree of myelination.
Global analysis of the data was performed using one-way ANOVA. Dunnett's test was used further, and data were compared to the “vehicle” control. The level of significance was set at a: p<0.001; b or **: p<0.01; c or *: p<0.05; d: p<0.1. The results were expressed as mean ±standard error of the mean (s.e.m.).
The sciatic nerve crush model described in Example 4 above was carried out to test SDF-1α variant as defined in SEQ ID NO: 4 and the mice were divided into the following 2 groups (n=6):
The SDF-1α variant used in this example and encoded by SEQ ID NO: 4 was expressed with an additional N terminal Methionine. The CMAP duration (time needed for a depolarization and a repolarization session) was also recorded.
The sciatic nerve crush model described in Example 4 above was carried out to test Met-SDF-1α (as defined in SEQ ID NO: 7) and the mice were divided into the following 2 groups (n=6):
(b) nerve crush/Met-SDF-1α variant at 100, 30, and 10 μg/kg s.c.

[1] = Body weight in streptozotocin (STZ) diabetic rats; format: in vivo, rat; conditions: daily s.c. D11 to D40 post-STZ; SDF-1α 10, 30, 100 μg/kg, IL-6 10 μg/kg
Experimental: Eight week-old male Sprague Dawley rats (Janvier, Le Genest Saint Isle, France) were randomly distributed in 6 experimental groups (n=10) as shown below.
Diabetes was induced by intravenous injection of a buffered solution of streptozotocin (Sigma, L'Isle d'Abeau Chesnes, France) at a dose of 55 mg/kg. STZ was prepared in 0.1 mol/l citrate buffer pH 4.5. Control group received an equivalent volume of citrate buffer. The day of STZ injection was considered as D0.
Treatment with SDF-1α, with IL-6 or their matched vehicle was performed on daily basis from D11 to D40.

STZ-rats = experiment: STZ diabetic neuropathy, morphometric analysis of sciatic nerve and skin biopsy; format: in vivo, rat; conditions: day 40 post STZ; for density of intra-epidermal nerve fibers: vs vehicle
Experimental: Morphometric analysis was performed at the end of the study. The animals were anesthetized by IP injection of 60 mg/kg Imalgéne 500®. A 5 mm-segment of sciatic nerve was excised for histology. The tissue was fixed overnight with 4% glutaraldehyde (Sigma, L'Isle d'Abeau-Chesnes, France) solution in phosphate buffer solution (pH 7.4) and maintained in 30% sucrose at +4° C. until use. The nerve sample was fixed in 2% osmium tetroxide (Sigma) solution in phosphate buffer solution for 2 h, dehydrated in serial alcohol solution, and embedded in Epon. Embedded tissues were then placed at +70° C. during 3 days of polymerization. Transverse sections of 1.5 μm thickness were obtained using a microtome. They were stained with a 1% toluidine blue solution (Sigma) for 2 min, dehydrated and mounted in Eukitt.
Analysis was performed on the entire surface of the nerve section using a semi-automated digital image analysis software (Biocom, France). Once extraneous objects had been eliminated, the software reported the total number of myelinated fibers. The number of degenerated fibers was then counted manually by an operator. Myelinated fibers without axons, redundant myelin and fibers showing sheaths with too large thickness in respect to their axonal diameter were considered as fibers undergoing processes of degeneration. The number of non-degenerated fibers was obtained by subtraction of the number of degenerated fibers.
Morphological analysis was performed only on fibers considered as non-degenerated. For each fiber, the axonal and myelin sizes were reported in surface area (μm^2). These two parameters were used to calculate the equivalent area of g-ratio (axonal diameter/fiber diameter) of each fiber (i.e., [A/(A+M)]^0.5, A=axonal area, M=myelin area), indicative of the relative myelin sheath thickness.
In addition, a 5-10 mm diameter area of skin was punch-biopsied from the hindpaw. Skin samples were immediately fixed overnight in paraformaldehyde at 4° C., incubated (overnight) in 30% sucrose in 0.1 M PBS for cryoprotection, embedded in OCT and frozen at −80° C. until cryocut.
50 μm-thick cryosections were then cut vertical to the skin surface with a cryostat. Free-floating sections were incubated for 7 days in a bath of rabbit anti-protein gene product 9.5 (1:10000; Ultraclone, Isle of Man, UK) at 4° C. The sections were then processed to reveal immunoreactivity according to the ABC peroxidase method. Briefly, they were incubated in for 1 h with biotinylated […] antibody (1:200), then 30 min in the avidin biotinylated complex at room temperature. Peroxidase activity was visualized using DAB system. Sections were then counterstained with eosin or hematoxylin. Sections were dehydrated, clear with bioclear and mounted on eukitt. Photos of microscope fields were performed at 20× power magnification view using Nikon digital camera at focal distance of 12.9 mm. The number of intra-epidermal nerves on 3 microscope fields of […] (544×408 μm) each was counted by the experimenter on computer screen.
Global analysis of the data was performed using one factor or repeated measure analysis of variance (ANOVA) and one-way ANOVA. When ANOVA indicated significant difference, Fisher Protected Least Significant Difference was used as post-hoc test to compare experimental groups with the group of diabetic rats treated with the vehicle. The level of significance was set at p≦0.05. Results are expressed as mean ±standard error of the mean (s.e.m.).

[2] = SDF-1α 10, 30, 100 μg/kg, IL-6 10 μg/kg s.c.
[3] = SDF-1α especially 10 or 30 μg/kg, IL-6 10 μg/kg s.c.

Substance | increase in the CMAP amplitude as compared to untreated mice (sciatic nerve crush mice) | body weight of diabetic rats [1] | number of degenerated fibers in the sciatic nerve (STZ-rats; [2]) | density of intra-epidermal nerve fibers (STZ-rats; [2]) | g-ratio (relative myelin thickness) vs STZ/Vehicle group (STZ-rats; [3]) | potency on CMAP latency compared with IL-6 (30 μg/kg) (sciatic nerve crush mice; 30 μg/kg s.c.) | CMAP latency vs vehicle treated mice (sciatic nerve crush mice; day 7, SDF-1α 30 μg/kg and 100 μg/kg, IL-6 30 μg/kg s.c.) | CMAP latency vs vehicle treated mice (sciatic nerve crush mice; dpl 15 and 22, 30 μg/kg and 100 μg/kg s.c.) | g-ratio (relative myelin thickness) vs STZ/Vehicle group (STZ-rats; 100 μg/kg s.c.) | number of degenerated fibers in the sciatic nerve (STZ-rats; lowest dose 10 μg/kg s.c. (best effect))
IL-6: reference (positive) control compound in nerve crush and STZ models [reference compound] | about 1.5 times | slight but significant increase | significantly reduced population of degenerated fibers | markedly prevented | significant reduction | – | – | – | – | –
SDF-1α: Human recombinant chemokine SDF-1α (SEQ ID NO: 1), produced in house, expressed in E. Coli cells | about 1.5 times | slight but significant increase | reduction of degenerated fibers population | significantly greater density | significantly reduced | more potent than IL-6 | significantly reduced | significant effect | did not reach the significance level | reached the significance level
